Each structure is given as a SMILES string. Some results are limits rather than exact numbers.

Chain of Protein Kinase C beta 2 (PKCβII) (P05771 other isoform, or with tags, fused parts or gaps): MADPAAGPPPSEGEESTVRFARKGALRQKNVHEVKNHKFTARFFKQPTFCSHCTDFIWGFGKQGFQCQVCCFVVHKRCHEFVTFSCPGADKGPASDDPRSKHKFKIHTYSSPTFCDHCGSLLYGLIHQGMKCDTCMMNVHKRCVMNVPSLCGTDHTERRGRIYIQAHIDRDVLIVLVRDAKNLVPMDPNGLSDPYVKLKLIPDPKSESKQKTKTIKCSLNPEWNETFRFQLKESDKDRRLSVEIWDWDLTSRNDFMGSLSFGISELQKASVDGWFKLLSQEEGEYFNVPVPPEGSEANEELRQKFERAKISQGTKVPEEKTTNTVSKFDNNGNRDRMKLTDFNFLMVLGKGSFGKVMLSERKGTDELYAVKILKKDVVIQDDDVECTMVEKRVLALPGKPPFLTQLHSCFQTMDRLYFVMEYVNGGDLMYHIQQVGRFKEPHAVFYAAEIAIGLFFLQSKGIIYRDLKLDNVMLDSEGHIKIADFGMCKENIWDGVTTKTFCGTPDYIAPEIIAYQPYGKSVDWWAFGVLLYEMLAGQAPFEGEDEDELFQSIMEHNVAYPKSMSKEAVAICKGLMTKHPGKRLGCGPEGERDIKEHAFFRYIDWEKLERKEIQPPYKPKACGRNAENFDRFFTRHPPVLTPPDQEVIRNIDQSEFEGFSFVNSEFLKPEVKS

The test addresses Protein Kinase C beta 2 (PKCβII) (Homo sapiens (Human), UniProt P05771). Briefly: PKCβII coupled spectrophotometric kinase assay (PK/LDH, NADH absorbance at 340 nm). Format: biochemical. The note with it: apparent Ki, ATP competitive inhibition model (Morrison equation); 0.1 mM ATP, 5 nM PKC, 30° C.; read-out: Ki app. How it is done:
Protein Kinase C beta 2 (PKCβII) catalyzes the production of ADP from ATP that accompanies the phosphoryl transfer to the PKC Pseudosubstrate peptide (A→S, RFARKGSLRQKNV). This transfer is coupled to the oxidation of β-NADH through the activities of Pyruvate Kinase (PK) and Lactate Dehydrogenase (LDH). β-NADH conversion to NAD+ is monitored by the decrease in absorbance at 340 nm (e=6.22 cm^−1 mM^−1) using a Molecular Devices SPECTRA max PLUS spectrophotometer.
A typical assay was carried out on a 96-well, clear microtiter plate in a Molecular Devices spectrophotometer for 20 minutes at 30° C. in 0.1 mL of assay buffer containing 50 mM HEPES, pH 7.4, 5 nM PKC, 23 units of pyruvate kinase, 33 units of lactate dehydrogenase, 0.15 mM peptide, 0.1 mM ATP, 1 mM DTT, 4 mM PEP, 8 mM MgCl2, 0.3 mM NADH, 60 mM CaCl2, 10 mg/mL PS, 50 ng/mL PMA, 7.5% DMSO and from about 10,000 nM to 0.169 nM compound inhibitor. Stock solutions of 3-sn-phosphatidyl-L-serine (PS) and phorbol-12-myristate-13-acetate (PMA) were sonicated for 30 seconds just prior to addition to assay buffer and assays were initiated by the addition of 100 μM ATP.
Steady-state kinetic parameters for the bi-bi kinase reaction were determined at saturating phospho-acceptor peptide substrate concentration (0.15 mM) by fitting initial velocity data to the Michaelis-Menten equation, v=Vmax[S]/(KM+[S]) where v is the measured initial velocity, Vmax is the maximal enzyme velocity, [S] is the ATP substrate concentration, and KM is the Michealis constant for ATP. Enzyme turnover values (kcat) were calculated according to […], where [E] is the total enzyme concentration. Enzyme inhibition constants (apparent Ki values) were determined by fitting initial velocities at variable inhibitor concentrations to a model for ATP competitive inhibition based on the Morrison equation). Morrison, J. F., Biochim. Biophys Acta 185: 269-286 (1969).
On to `COCCOc1ncc(F)c(Nc2n[nH]c3c2CN(C(=O)C2(F)CCN(C)CC2)C3(C)C)n1` [Example L2, N-[5-fluoro-2-(2-methoxyethoxy)pyrimidin-4-yl]-5-[(4-fluoro-1-methylpiperidin-4-yl)carbonyl]-6,6-dimethyl-1,4,5,6-tetrahydropyrrolo[3,4-c]pyrazol-3-amine], for which the Ki worked out at 168 nM.
In the case of `CCOc1ncc(F)c(Nc2n[nH]c3c2CN(C(=O)N2CCN4CCC[C@@H]4C2)C3(C)C)n1` [Example K14, [3-(2-Ethoxy-5-fluoro-pyrimidin-4yl-amino)-6,6-dimethyl-4,6-dihydro-1H-pyrrolo[3,4-c]pyrazol-5-yl]-(R)-hexahydro-pyrrolo[1,2-a]pyrazin-2-yl-methanone] it was 71.7 nM; in that of `CCOc1ncc(F)c(Nc2n[nH]c3c2CN(C(=O)N2C[C@@H](C)N(C4CCOCC4)C[C@@H]2C)C3(C)C)n1` [Example K21, 5-{[(2S,5R)-2,5-dimethyl-4-(tetrahydro-2H-pyran-4-yl)piperazin-1-yl]carbonyl}-N-(2-ethoxy-5-fluoropyrimidin-4-yl)-6,6-dimethyl-1,4,5,6-tetrahydropyrrolo[3,4-c]pyrazol-3-amine], below 10 nM.
Then `CCOc1ncc(F)c(Nc2n[nH]c3c2CN(C(=O)N2C[C@H](C)N(C)C[C@@H]2C)C3(C)C)n1` [Example K13, 2(S),5(S)-{[dimethyl-4-methylpiperazin-1-yl]carbonyl}-N-(5-fluoro-2-ethoxypyrimidin-4-yl)-6,6-dimethyl-1,4,5,6-tetrahydropyrrolo[3,4-c]pyrazol-3-amine], with 26.5 nM.
Then `Cc1ncc(F)c(Nc2n[nH]c3c2CN(C(=O)N2CC(C)(C)N(C)C[C@@H]2C)C3(C)C)n1` [Example H3, N-(5-fluoro-2-methylpyrimidin-4-yl)-6,6-dimethyl-5-{[(2S)-2,4,5,5-tetramethylpiperazin-1-yl]carbonyl}-1,4,5,6-tetrahydropyrrolo[3,4-c]pyrazol-3-amine], with 7.21 nM; and `CN1CCC(F)(C(=O)N2Cc3c(Nc4nc(OCC(F)(F)F)ncc4F)n[nH]c3C2(C)C)CC1` [Example L4, 5-[(4-fluoro-1-methylpiperidin-4-yl)carbonyl]-N-[5-fluoro-2-(2,2,2-trifluoroethoxy)pyrimidin-4-yl]-6,6-dimethyl-1,4,5,6-tetrahydropyrrolo[3,4-c]pyrazol-3-amine], with 1.71 nM; and `CCOc1ncc(F)c(Nc2n[nH]c3c2CN(C(=O)N2C[C@@H]4CCCN4C[C@@H]2C(C)C)C3(C)C)n1` [Example K20, N-(2-ethoxy-5-fluoropyrimidin-4-yl)-5-{[(3S,8aS)-3-isopropylhexahydropyrrolo[1,2-a]pyrazin-2(1H)-yl]carbonyl}-6,6-dimethyl-1,4,5,6-tetrahydropyrrolo[3,4-c]pyrazol-3-amine], with 26 nM.
In the case of `CCOc1ncc(F)c(Nc2n[nH]c3c2CN(C(=O)N2CC(C)(C)N(C)C[C@@H]2C)C3(C)C)n1` [Example K3, N-(2-ethoxy-5-fluoropyrimidin-4-yl)-6,6-dimethyl-5-{[(2S)-2,4,5,5-tetramethylpiperazin-1-yl]carbonyl}-1,4,5,6-tetrahydropyrrolo[3,4-c]pyrazol-3-amine], the Ki turned out to be 0.912 nM.
Then `COCCOc1ncc(F)c(Nc2n[nH]c3c2CN(C(=O)N2CC(C)(C)N(C)C[C@@H]2C)C3(C)C)n1` [Example K11, N-[5-fluoro-2-(2-methoxyethoxy)pyrimidin-4-yl]-6,6-dimethyl-5-{[(2S)-2,4,5,5-tetramethylpiperazin-1-yl]carbonyl}-1,4,5,6-tetrahydropyrrolo[3,4-c]pyrazol-3-amine], with 42.7 nM.
In the case of `C[C@@H]1CN(C(=O)N2Cc3c(Nc4ccnc(C#N)n4)n[nH]c3C2(C)C)[C@@H](C)CN1C` [Example B6, 4-[(6,6-dimethyl-5-{[(2S,5R)-2,4,5-trimethylpiperazin-1-yl]carbonyl}-1,4,5,6-tetrahydropyrrolo[3,4-c]pyrazol-3-yl)amino]pyrimidine-2-carbonitrile] it was 2.43 nM; in that of `CNc1ncc(F)c(Nc2n[nH]c3c2CN(C(=O)N2CC(C)(C)N(C)C[C@@H]2C)C3(C)C)n1` [Example A6, N^4-(6,6-dimethyl-5-{[(2S)-2,4,5,5-tetramethylpiperazin-1-yl]carbonyl}-1,4,5,6-, tetrahydropyrrolo[3,4-c]pyrazol-3-yl)-5-fluoro-N^2-methylpyrimidine-2,4-diamine], 10.8 nM; in that of `CCc1ncc(F)c(Nc2n[nH]c3c2CN(C(=O)N2C[C@@H](C)N(CCCOC)C[C@@H]2C)C3(C)C)n1` [Example E2, N-(2-ethyl-5-fluoropyrimidin-4-yl)-5-{[(2S,5R)-4-(3-methoxypropyl)-2,5-dimethylpiperazin-1-yl]carbonyl}-6,6-dimethyl-1,4,5,6-tetrahydropyrrolo[3,4-c]pyrazol-3-amine], 1.64 nM.
In the case of `C[C@H]1CN(C)C(C)(C)CN1C(=O)N1Cc2c(Nc3nc(NCC4CC4)ncc3F)n[nH]c2C1(C)C` [Example A3, N^2-(cyclopropylmethyl)-N^4-(6,6-dimethyl-5-{[(2S)-2,4,5,5-tetramethylpiperazin-1-yl]carbonyl}-1,4,5,6-tetrahydropyrrolo[3,4-c]pyrazol-3-yl)-5-fluoropyrimidine-2,4-diamine] it was 17.9 nM; in that of `COCc1ncc(F)c(Nc2n[nH]c3c2CN(C(=O)N2CC(C)(C)N(C)C[C@@H]2C)C3(C)C)n1` [Example J9, N-[5-fluoro-2-(methoxymethyl)pyrimidin-4-yl]-6,6-dimethyl-5-{[(2S)-2,4,5,5-tetramethylpiperazin-1-yl]carbonyl}-1,4,5,6-tetrahydropyrrolo[3,4-c]pyrazol-3-amine], 2.1 nM.
As to `COc1ncc(F)c(Nc2n[nH]c3c2CN(C(=O)N2CC(CCO)N(C)C[C@@H]2C)C3(C)C)n1` (single isomer, unassigned) [Example K26], the Ki is 54.7 nM.
Consider `CCOc1ncc(F)c(Nc2n[nH]c3c2CN(C(=O)C2CCN(C4CCOCC4)CC2)C3(C)C)n1` [Example L6, N-(2-ethoxy-5-fluoropyrimidin-4-yl)-6,6-dimethyl-5-{[1-(tetrahydro-2H-pyran-4-yl)piperidin-4-yl]carbonyl}-1,4,5,6-tetrahydropyrrolo[3,4-c]pyrazol-3-amine], for which the Ki came to 181 nM.
Then `CCOc1ccnc(Nc2n[nH]c3c2CN(C(=O)N2C[C@@H](C)N(CCCOC)C[C@@H]2C)C3(C)C)n1` [Example M2, N-(4-ethoxypyrimidin-2-yl)-5-{[(2S,5R)-4-(3-methoxypropyl)-2,5-dimethylpiperazin-1-yl]carbonyl}-6,6-dimethyl-1,4,5,6-tetrahydropyrrolo[3,4-c]pyrazol-3-amine], with 16.1 nM.
In the case of `Cc1ncc(F)c(Nc2n[nH]c3c2CN(C(=O)N2CC(CCO)N(C)C[C@@H]2C)C3(C)C)n1` (single isomer, unassigned) [Example H9] it was 58.2 nM; in that of `Cc1ccc(F)c(Nc2n[nH]c3c2CN(C(=O)N2C[C@@H](C)N(C)C[C@@H]2C)C3(C)C)n1` [Example J3, N-(3-fluoro-6-methylpyridin-2-yl)-6,6-dimethyl-5-{[(2S,5R)-2,4,5-trimethylpiperazin-1-yl]carbonyl}-1,4,5,6-tetrahydropyrrolo[3,4-c]pyrazol-3-amine], 2.63 nM.

For the origin of these results see patent US9518060B2, “Substituted pyrrolo[3,4-c]pyrazoles as PKC kinase inhibitors” (PFIZER INC., priority 2007, dated 2016).
